In patent US20090093539A1, “ANTI-ANGIOGENIC COMPOSITIONS AND METHODS OF USE THEREOF” (priority 2007, published 2009):

Tests used:
Type in all cases: cell-based
[1] = tested on: SW480 (Colon Cancer) cancer cell line; assay: inhibition of cancer cell lines in vitro: SW480; details: about 2 micrograms per milliliter
From the text: (§1) 15,16-dihyrotanshinone I is also a potent inhibitor of several cancer cell lines in vitro, including the SW480 (Colon Cancer) and the HTB 72 (Melanoma) cancer cell lines. At a very low concentration of about 2 micrograms per milliliter, 100% inhibitions are achieved.

[2] = tested on: HTB 72 (Melanoma) cancer cell line; assay: inhibition of cancer cell lines in vitro: HTB 72; details: about 2 micrograms per milliliter
From the text: as §1

[3] = tested on: Bovine Cardio-Pulmonary Artery Endothelial (CPAE) cells; assay: endothelial cell proliferation assay (cellular acid phosphatase readout)
Experimental: An endothelial cell proliferation assay was carried out according to the procedures of Connally, et al. (1986) (Anal. Biochem. 152:136-140) with modifications (Liang and Wong (2000) ANGIOGENESIS: FROM THE MOLECULAR TO INTEGRATIVE PHARMACOLOGY, edited by Maradoudakis, Kluwer Academic/Plenum Publishers, New York, pp 209-223). Bovine Cardio-Pulmonary Artery Endothelial (CPAE) cells acquired from American Type Culture Collection (ATCC; ATCC No. CCL-209) were grown to nearly 95% confluence in MEM-10E. The cells were released from the tissue culture flask with a 0.25% trypsin solution and plated in 24-well tissue culture plates in the same culture medium at a density of 10,000 cells/well. After the plates were incubated for 8 hours at 37° C. in a 5% carbon dioxide incubator, assay samples and control samples were added. Each sample was loaded in two different wells at 100 μl/well to ensure reproducibility. After incubation with the sample for 60 hours, the medium was aspirated, and the number of cells was measured on the basis of the calorimetric measurement of cellular acid phosphatase.

Cc1cccc2c3c(ccc12)C1=C(C(=O)C3=O)C(C)CO1 (stereo not shown) [15,16-dihydrotanshinone I, 15,16-dihydrotanshinone]
inhibition of SW480 (Colon Cancer) cell line [1]: 100% | inhibition of HTB 72 (Melanoma) cell line [2]: 100% | inhibition at 50 µg/mL ([3]; Bos taurus, Endothelial cell, 50 μg/ml, 60 hours incubation, read-out: endothelial cell growth inhibition): 84.4% | inhibition of endothelial cell proliferation, concentration-dependent study (FIG. 1) ([3]; another 15,16-dihydrotanshinone I sample, result in words): inhibits endothelial cell proliferation in a concentration-dependent manner
